Test results reported in PubChem BioAssay (NCI).
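A five-concentration, 48-hour dose response in 96-well plates underlies each endpoint, interpolated linearly between surrounding concentrations. GI50: concentration for 50% inhibition of growth. TGI: total growth inhibition.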

Legend:
Test in all cases: inhibition of tumour cell growth, NCI panel, 48 h
NCI-H460 lung = system: NCI-H460 lung
SW-620 colon = system: SW-620 colon
SNB-19 CNS = system: SNB-19 CNS
SN12C renal = system: SN12C renal
MALME-3M melanoma = system: MALME-3M melanoma
SF-539 CNS = system: SF-539 CNS
TK-10 renal = system: TK-10 renal
PC-3 prostate = system: PC-3 prostate
RPMI-8226 leukemia = system: RPMI-8226 leukemia
OVCAR-3 ovarian = system: OVCAR-3 ovarian
HT29 colon = system: HT29 colon
HOP-92 NSCLC = system: HOP-92 NSCLC
MCF7 breast = system: MCF7 breast
SF-295 CNS = system: SF-295 CNS
A549 NSCLC = system: A549 NSCLC
U251 CNS = system: U251 CNS
M14 melanoma = system: M14 melanoma
T-47D breast = system: T-47D breast
ACHN renal = system: ACHN renal
A498 renal = system: A498 renal
K-562 leukemia = system: K-562 leukemia
BT-549 breast = system: BT-549 breast
IGROV1 ovarian = system: IGROV1 ovarian
KM12 colon = system: KM12 colon
SNB-75 CNS = system: SNB-75 CNS
LOX IMVI melanoma = system: LOX IMVI melanoma
MDA-MB-435 = system: MDA-MB-435
SK-MEL-28 melanoma = system: SK-MEL-28 melanoma
MDA-MB-468 breast = system: MDA-MB-468 breast
NCI-H23 lung = system: NCI-H23 lung
CAKI-1 renal = system: CAKI-1 renal
MOLT-4 leukemia = system: MOLT-4 leukemia
UACC-62 melanoma = system: UACC-62 melanoma
CCRF-CEM leukemia = system: CCRF-CEM leukemia
OVCAR-4 ovarian = system: OVCAR-4 ovarian
SK-OV-3 ovarian = system: SK-OV-3 ovarian
DU-145 prostate = system: DU-145 prostate
MDA-MB-231 breast = system: MDA-MB-231 breast
NCI-H522 lung = system: NCI-H522 lung
SK-MEL-2 melanoma = system: SK-MEL-2 melanoma
HCT-116 colon = system: HCT-116 colon
SF-268 CNS = system: SF-268 CNS
OVCAR-5 ovarian = system: OVCAR-5 ovarian
SK-MEL-5 melanoma = system: SK-MEL-5 melanoma
HL-60(TB) leukemia = system: HL-60(TB) leukemia
HCT-15 colon = system: HCT-15 colon
HOP-62 NSCLC = system: HOP-62 NSCLC
EKVX NSCLC = system: EKVX NSCLC
HS 578T breast = system: HS 578T breast
UACC-257 melanoma = system: UACC-257 melanoma
OVCAR-8 ovarian = system: OVCAR-8 ovarian
COLO 205 colon = system: COLO 205 colon
RXF 393 renal = system: RXF 393 renal
UO-31 renal = system: UO-31 renal
786-0 renal = system: 786-0 renal
NCI-H226 lung = system: NCI-H226 lung
HCC-2998 colon = system: HCC-2998 colon
SR leukemia = system: SR leukemia

`COc1ccccc1NC(=O)c1ccc(NC(=O)CCl)s1` was tested, and the GI50 (NCI-H460 lung) was 11 µM, the TGI (NCI-H460 lung) was 35.4 µM and the GI50 (SW-620 colon) was 4.27 µM. The TGI (SW-620 colon) was 21.7 µM, the GI50 (SNB-19 CNS) was 32.4 µM and the TGI (SNB-19 CNS) was greater than 100 µM. It also gave a GI50 (SN12C renal) of 13.4 µM, a TGI (SN12C renal) of 36 µM and a GI50 (MALME-3M melanoma) of 15.1 µM. For the same compound, the TGI (MALME-3M melanoma) was 30.5 µM, the GI50 (SF-539 CNS) was 16.2 µM and the TGI (SF-539 CNS) was 30.8 µM. For the same compound, the GI50 (TK-10 renal) was 20.4 µM, the TGI (TK-10 renal) was 73.6 µM and the GI50 (PC-3 prostate) was 11.1 µM. The TGI (PC-3 prostate) was 28.4 µM, the GI50 (RPMI-8226 leukemia) was 13.6 µM and the TGI (RPMI-8226 leukemia) was 38.6 µM. The GI50 (OVCAR-3 ovarian) was 13.6 µM, the TGI (OVCAR-3 ovarian) was 29 µM and the GI50 (HT29 colon) was 8.76 µM. The TGI (HT29 colon) was 22.9 µM, the GI50 (HOP-92 NSCLC) was 16.5 µM and the TGI (HOP-92 NSCLC) was 34.7 µM. The GI50 (MCF7 breast) was 5.02 µM, the TGI (MCF7 breast) was 44 µM and the GI50 (SF-295 CNS) was 25.9 µM. For the same compound, the TGI (SF-295 CNS) was greater than 100 µM, the GI50 (A549 NSCLC) was 14.7 µM and the TGI (A549 NSCLC) was 40 µM. For the same compound, the GI50 (U251 CNS) was 13.9 µM, the TGI (U251 CNS) was 28.1 µM and the GI50 (M14 melanoma) was 13.1 µM. The TGI (M14 melanoma) was 28.7 µM, the GI50 (T-47D breast) was 42.3 µM and the TGI (T-47D breast) was greater than 100 µM. The GI50 (ACHN renal) was 10.5 µM, the TGI (ACHN renal) was 24.5 µM and the GI50 (A498 renal) was 87.4 µM. The TGI (A498 renal) was greater than 100 µM, the GI50 (K-562 leukemia) was 2.65 µM and the TGI (K-562 leukemia) was greater than 100 µM. For the same compound, the GI50 (BT-549 breast) was 12.2 µM, the TGI (BT-549 breast) was 26.8 µM and the GI50 (IGROV1 ovarian) was 15.6 µM. For the same compound, the TGI (IGROV1 ovarian) was 34.9 µM, the GI50 (KM12 colon) was 14.7 µM and the TGI (KM12 colon) was 38.8 µM. For the same compound, the GI50 (SNB-75 CNS) was 11.5 µM, the TGI (SNB-75 CNS) was 83.2 µM and the GI50 (LOX IMVI melanoma) was 4.81 µM. For the same compound, the TGI (LOX IMVI melanoma) was 18.5 µM, the GI50 (MDA-MB-435) was 15.7 µM and the TGI (MDA-MB-435) was 32.5 µM. For the same compound, the GI50 (SK-MEL-28 melanoma) was 21.9 µM, the TGI (SK-MEL-28 melanoma) was 54.1 µM and the GI50 (MDA-MB-468 breast) was 12.4 µM. It also gave a TGI (MDA-MB-468 breast) of 27.7 µM, a GI50 (NCI-H23 lung) of 13.6 µM and a TGI (NCI-H23 lung) of 31.2 µM. The GI50 (CAKI-1 renal) was 12.8 µM, the TGI (CAKI-1 renal) was 29 µM and the GI50 (MOLT-4 leukemia) was 4.23 µM. For the same compound, the TGI (MOLT-4 leukemia) was 40.6 µM, the GI50 (UACC-62 melanoma) was 16.1 µM and the TGI (UACC-62 melanoma) was 31 µM. The GI50 (CCRF-CEM leukemia) was 3.62 µM, the TGI (CCRF-CEM leukemia) was 88.1 µM and the GI50 (OVCAR-4 ovarian) was 21 µM. The TGI (OVCAR-4 ovarian) was 68.7 µM, the GI50 (SK-OV-3 ovarian) was 29.5 µM and the TGI (SK-OV-3 ovarian) was 74.9 µM. It also gave a GI50 (DU-145 prostate) of 24.7 µM, a TGI (DU-145 prostate) of 85 µM and a GI50 (MDA-MB-231 breast) of 15.2 µM. The TGI (MDA-MB-231 breast) was 33.7 µM, the GI50 (NCI-H522 lung) was 10.6 µM and the TGI (NCI-H522 lung) was 24 µM. For the same compound, the GI50 (SK-MEL-2 melanoma) was 13.9 µM, the TGI (SK-MEL-2 melanoma) was 29.2 µM and the GI50 (HCT-116 colon) was 5.52 µM. The TGI (HCT-116 colon) was 30.5 µM, the GI50 (SF-268 CNS) was 18.8 µM and the TGI (SF-268 CNS) was 64.2 µM. The GI50 (OVCAR-5 ovarian) was 23.6 µM, the TGI (OVCAR-5 ovarian) was 49.2 µM and the GI50 (SK-MEL-5 melanoma) was 15.3 µM. It also gave a TGI (SK-MEL-5 melanoma) of 29.4 µM, a GI50 (HL-60(TB) leukemia) of 4.76 µM and a TGI (HL-60(TB) leukemia) of 35.6 µM. It also gave a GI50 (HCT-15 colon) of 4.29 µM, a TGI (HCT-15 colon) of 29 µM and a GI50 (HOP-62 NSCLC) of 36.4 µM. It also gave a TGI (HOP-62 NSCLC) greater than 100 µM, a GI50 (EKVX NSCLC) of 18 µM and a TGI (EKVX NSCLC) of 67.7 µM. The GI50 (HS 578T breast) was 15.1 µM, the TGI (HS 578T breast) was 54.4 µM and the GI50 (UACC-257 melanoma) was 24.3 µM. It also gave a TGI (UACC-257 melanoma) greater than 100 µM, a GI50 (OVCAR-8 ovarian) of 12.7 µM and a TGI (OVCAR-8 ovarian) of 33.8 µM. For the same compound, the GI50 (COLO 205 colon) was 15.1 µM, the TGI (COLO 205 colon) was 35.5 µM and the GI50 (RXF 393 renal) was 11.6 µM. For the same compound, the TGI (RXF 393 renal) was 25.1 µM, the GI50 (UO-31 renal) was 13.7 µM and the TGI (UO-31 renal) was 27.3 µM. The GI50 (786-0 renal) was 12.3 µM, the TGI (786-0 renal) was 26.1 µM and the GI50 (NCI-H226 lung) was 14.6 µM. It also gave a TGI (NCI-H226 lung) of 32.4 µM, a GI50 (HCC-2998 colon) of 28.6 µM and a TGI (HCC-2998 colon) greater than 100 µM. It also gave a GI50 (SR leukemia) of 3.11 µM and a TGI (SR leukemia) greater than 100 µM.
